The target of experiment [1] is T1, human NK3 receptor (Homo sapiens (Human), UniProt P29371). The experiment is described as follows: Human NK3 receptor binding assay at 10 μM. As to conditions: 10 μM test compound, [3H]SR142801, CHO cell membranes. The method, then: Antagonist activity was evaluated at a concentration of 10 μM for a representative subset of test compounds, and the results were expressed as the percent inhibition at that concentration.
Each test compound was evaluated at a single concentration of 10 μM. […] The results are expressed as a percent of control specific binding ((measured specific binding/control specific binding)×100) obtained in the presence of the test compounds.

The target in experiment [2] is T1, human NK3 receptor. The experiment is described as follows: biochemical.
Method: Evaluation of the affinity of compounds for the human NK3 receptor from transfected CHO cells was performed using an antagonist radioligand binding assay. The antagonist activity of a representative subset of test compounds was evaluated over a range of concentrations, and the results were expressed as IC50 values.
Receptor binding assays were performed using crude membranes prepared from CHO cells expressing human NK3 receptor. Osanetant (SR142801), a non-peptide NK3 antagonist, was used as a ligand, and SB222200 was used as a positive control reference compound. The assay was performed with cell membrane homogenates (24 μg protein) incubated for 120 min at 22° C. with 0.4 nM [^3H]SR142801 in the absence or presence of the test compound in a buffer containing 20 mM Hepes/NaOH (pH 7.4), 120 mM NaCl, 1 mM MnCl2, 0.01% bacitracin, 0.002% aprotinin and 0.1% BSA. Following incubation, the samples were filtered rapidly under vacuum through glass fiber filters (GF/B, Packard) that had been presoaked with 0.3% PEI. The filters were rinsed several times with ice-cold 50 mM Tris/HCl using a 96-sample cell harvester (Unifilter, Packard), dried, and counted for radioactivity in a scintillation counter (Topcount, Packard) using a scintillation cocktail (Microscint 0, Packard). […] The standard reference compound, SB222200, was tested in each experiment. Nonspecific binding was determined in the presence of 10 μM SB222200. The specific ligand binding to the receptor is defined as the difference between the total binding and the nonspecific binding. The IC50 values (concentration causing a half-maximal inhibition of control specific binding) and Hill coefficients (nH) were determined by non-linear regression analysis of the competition curves generated with mean replicate values using Hill equation curve fitting (Y=D+[(A−D)/(1+(C/C50)^nH)], where Y=specific binding, D=minimum specific binding, A=maximum specific binding, C=compound concentration, C50=IC50, and nH=slope factor). […] The inhibition constants (Ki) were calculated using the Cheng Prusoff equation (Ki=IC50/(1+(L/KD)), where L=concentration of radioligand in the assay, and KD=affinity of the radioligand for the receptor). A scatchard plot was used to determine the Kd.
The target of experiment [3] is T1, human NK3 receptor. The experiment is described as follows: Human NK3 receptor binding assay at 1 uM. As to conditions: 1 μM test compound; [3H]SR142801, CHO cell membranes; read-out: percent inhibition at 1 μM. The method, then: Antagonist activity was evaluated at a concentration of 1 μM for a representative subset of test compounds, and the results were expressed as the percent inhibition at that concentration.
Each test compound was evaluated at a single concentration of 1 μM. […] The results are expressed as a percent of control specific binding ((measured specific binding/control specific binding)×100) obtained in the presence of the test compounds.

The mark [4] stands for this setting: read-out: percent inhibition at 10 μM.
[5] abbreviates: read-out: NK3, % inhibition @ 10 μM.

pIC50: −log10 of the molar value. Read-outs that look alike come from different tables or passages of the source. Bounds are passed on as bounds.

T1 sequence (P29371 whole entry): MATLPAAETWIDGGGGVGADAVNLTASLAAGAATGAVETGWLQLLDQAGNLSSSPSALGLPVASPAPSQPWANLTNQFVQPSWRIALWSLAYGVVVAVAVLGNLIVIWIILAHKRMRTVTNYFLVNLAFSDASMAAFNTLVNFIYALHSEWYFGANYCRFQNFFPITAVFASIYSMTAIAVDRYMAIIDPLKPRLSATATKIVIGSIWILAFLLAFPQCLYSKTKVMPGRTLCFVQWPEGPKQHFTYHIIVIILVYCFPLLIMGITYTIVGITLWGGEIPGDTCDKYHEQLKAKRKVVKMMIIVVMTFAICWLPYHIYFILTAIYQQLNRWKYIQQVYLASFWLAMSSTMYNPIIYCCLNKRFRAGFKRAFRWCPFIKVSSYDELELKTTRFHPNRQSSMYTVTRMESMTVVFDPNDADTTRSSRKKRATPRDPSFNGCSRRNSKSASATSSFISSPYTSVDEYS

As to `CCOc1cc(C2NC(=O)NC(c3ccccc3)=C2c2cccc(C#N)c2)cc([N+](=O)[O-])c1O` (stereo not shown) [3-(4-(3-ethoxy-4-hydroxy-5-nitrophenyl)-2-oxo-6-phenyl-1,2,3,4-tetrahydropyrimidin-5-yl)benzonitrile], the inhibition at 10 µM on human NK3 receptor [1] (setting [4]) was more than 50%.
Turning to `O=C1NC(c2ccccc2)=C(c2ccccc2)C(c2cc(Cl)c(O)c([N+](=O)[O-])c2)N1` (stereo not shown) [4-(3-chloro-4-hydroxy-5-nitrophenyl)-5,6-diphenyl-3,4-dihydropyrimidin-2(1H)-one], the inhibition at 10 µM at human NK3 receptor [1] (setting [4]) is more than 50%.
`CCOc1cc(C2C(c3ccccc3)=C(c3ccccc3)N(C)C(=O)N2C)cc([N+](=O)[O-])c1O` (stereo not shown) [4-(3-ethoxy-4-hydroxy-5-nitrophenyl)-1,3-dimethyl-5,6-diphenyl-3,4-dihydropyrimidin-2(1H)-one] showed a negative-log IC50 (pIC50) against human NK3 receptor [2] not below 7.00. Also, the inhibition at 1 µM at human NK3 receptor [3] was more than 50%.
On the same counts, the results for `CCOc1cc(C2NC(=O)N(C)C(c3ccccc3)=C2c2ccccc2)cc([N+](=O)[O-])c1O` (stereo not shown) [4-(3-ethoxy-4-hydroxy-5-nitrophenyl)-1-methyl-5,6-diphenyl-3,4-dihydropyrimidin-2(1H)-one] are not below 6.00 and more than 50%.
Take `CCOc1cc(C2NC(=O)NC(c3ccccc3)=C2c2ccccc2)cc([N+](=O)[O-])c1O` (stereo not shown) [4-(3-ethoxy-4-hydroxy-5-nitrophenyl)-5,6-diphenyl-3,4-dihydropyrimidin-2(1H)-one]: the inhibition at 10 µM on human NK3 receptor [1] (setting [4]) was more than 50%; at human NK3 receptor [1] (setting [5]), 88%.
Turning to `CCOc1cc([C@@H]2NC(=O)NC(c3ccccc3)=C2c2ccccc2)cc([N+](=O)[O-])c1O` [4-(3-ethoxy-4-hydroxy-5-nitrophenyl)-5,6-diphenyl-3,4-dihydropyrimidin-2(1H)-one], the negative logarithm of the IC50 (pIC50) against human NK3 receptor [2] is 4.72.
Take `CCOc1cc(C2NC(=O)NC(c3ccccc3)=C2c2ccccc2F)cc([N+](=O)[O-])c1O` (stereo not shown) [4-(3-ethoxy-4-hydroxy-5-nitrophenyl)-5-(2-fluorophenyl)-6-phenyl-3,4-dihydropyrimidin-2(1H)-one]: at human NK3 receptor [3], the inhibition at 1 µM was more than 50%. The inhibition at 10 µM on human NK3 receptor [1] (setting [4]) was more than 50%.
Take `CCOc1cc(C2NC(=O)NC(c3cccnc3)=C2c2ccccc2)cc([N+](=O)[O-])c1O` (stereo not shown) [4-(3-ethoxy-4-hydroxy-5-nitrophenyl)-5-phenyl-6-(pyridin-3-yl)-3,4-dihydropyrimidin-2(1H)-one]: the inhibition at 10 µM is more than 50% at human NK3 receptor [1] (setting [4]) and 92% on human NK3 receptor [1] (setting [5]).
On to `CCOc1cc([C@@H]2NC(=O)NC(c3cccnc3)=C2c2ccccc2)cc([N+](=O)[O-])c1O` [4-(3-ethoxy-4-hydroxy-5-nitrophenyl)-5-phenyl-6-(pyridin-3-yl)-3,4-dihydropyrimidin-2(1H)-one], for which the negative logarithm of the IC50 (pIC50) on human NK3 receptor [2] is 4.26.
On to `CCOc1cc(C2NC(=O)NC(c3cccs3)=C2c2ccccc2)cc([N+](=O)[O-])c1O` (stereo not shown) [4-(3-ethoxy-4-hydroxy-5-nitrophenyl)-5-phenyl-6-(thiophen-2-yl)-3,4-dihydropyrimidin-2(1H)-one], for which the inhibition at 10 µM on human NK3 receptor [1] (setting [4]) was more than 50%.
Same read-out and setting: then `CCOc1cc(C2NC(=O)NC(c3ccsc3)=C2c2ccccc2)cc([N+](=O)[O-])c1O` (stereo not shown) [4-(3-ethoxy-4-hydroxy-5-nitrophenyl)-5-phenyl-6-(thiophen-3-yl)-3,4-dihydropyrimidin-2(1H)-one], with more than 50%.
With `CCOc1cc(C2NC(=O)NC(c3ccn(C)n3)=C2c2ccsc2)cc([N+](=O)[O-])c1O` (stereo not shown) [4-(3-ethoxy-4-hydroxy-5-nitrophenyl)-6-(1-methyl-1H-pyrazol-3-yl)-5-(thiophen-3-yl)-3,4-dihydropyrimidin-2(1H)-one], the inhibition at 10 µM at human NK3 receptor [1] (setting [4]) was more than 50%; at human NK3 receptor [1] (setting [5]), 61%.
With `CCOc1cc(C2NC(=O)NC(c3cnn(C)c3)=C2c2ccsc2)cc([N+](=O)[O-])c1O` (stereo not shown) [4-(3-ethoxy-4-hydroxy-5-nitrophenyl)-6-(1-methyl-1H-pyrazol-4-yl)-5-(thiophen-3-yl)-3,4-dihydropyrimidin-2(1H)-one], the inhibition at 10 µM on human NK3 receptor [1] (setting [4]) was more than 50%.
On to `CCOc1cc(C2NC(=O)NC(c3cccc(OC)c3)=C2c2ccccc2)cc([N+](=O)[O-])c1O` (stereo not shown) [4-(3-ethoxy-4-hydroxy-5-nitrophenyl)-6-(3-methoxyphenyl)-5-phenyl-3,4-dihydropyrimidin-2(1H)-one], for which the inhibition at 1 µM on human NK3 receptor [3] was more than 50%. Besides, the inhibition at 10 µM on human NK3 receptor [1] (setting [4]) was more than 50%.
For the compound `CCOc1cc(C2NC(=O)NC(c3ccoc3)=C2c2ccccc2)cc([N+](=O)[O-])c1O` (stereo not shown) [4-(3-ethoxy-4-hydroxy-5-nitrophenyl)-6-(furan-3-yl)-5-phenyl-3,4-dihydropyrimidin-2(1H)-one], the inhibition at 10 µM on human NK3 receptor [1] (setting [4]) is more than 50%.
Consider `CCOc1cc(C2NC(=O)NC(c3cccnc3)=C2c2ccsc2)cc([N+](=O)[O-])c1O` (stereo not shown) [4-(3-ethoxy-4-hydroxy-5-nitrophenyl)-6-(pyridin-3-yl)-5-(thiophen-3-yl)-3,4-dihydropyrimidin-2(1H)-one], for which the values for the inhibition at 10 µM on human NK3 receptor [1] (setting [4]) and on human NK3 receptor [1] (setting [5]) were more than 50% and 63%, respectively.
On to `CCOc1cc(C2NC(=O)NC(c3ccccc3)=C2c2cccs2)cc([N+](=O)[O-])c1O` (stereo not shown) [4-(3-ethoxy-4-hydroxy-5-nitrophenyl)-6-phenyl-5-(thiophen-2-yl)-3,4-dihydropyrimidin-2(1H)-one], for which, on human NK3 receptor [1] (setting [4]), the inhibition at 10 µM was more than 50%.
Turning to `CCOc1cc(C2NC(=O)NC(c3ccccc3)=C2c2ccsc2)cc([N+](=O)[O-])c1O` (stereo not shown) [4-(3-ethoxy-4-hydroxy-5-nitrophenyl)-6-phenyl-5-(thiophen-3-yl)-3,4-dihydropyrimidin-2(1H)-one], the results for the inhibition at 10 µM at human NK3 receptor [1] (setting [4]) and at human NK3 receptor [1] (setting [5]) were more than 50% and 97%, respectively.
Take `CCOc1cc([C@@H]2NC(=O)NC(c3ccccc3)=C2c2ccsc2)cc([N+](=O)[O-])c1O` [4-(3-ethoxy-4-hydroxy-5-nitrophenyl)-6-phenyl-5-(thiophen-3-yl)-3,4-dihydropyrimidin-2(1H)-one]: on human NK3 receptor [2], the pIC50 is 4.66.
Turning to `COCCOc1cc(C2NC(=O)NC(c3ccccc3)=C2c2ccccc2)cc([N+](=O)[O-])c1O` (stereo not shown) [4-(4-hydroxy-3-(2-methoxyethoxy)-5-nitrophenyl)-5,6-diphenyl-3,4-dihydropyrimidin-2(1H)-one], the inhibition at 1 µM on human NK3 receptor [3] is more than 50%. For the same compound, at human NK3 receptor [1] (setting [4]), the inhibition at 10 µM was more than 50%.
Regarding `COc1cc(C2NC(=O)NC(c3ccccc3)=C2c2ccccc2)cc([N+](=O)[O-])c1O` (stereo not shown) [4-(4-hydroxy-3-methoxy-5-nitrophenyl)-5,6-diphenyl-3,4-dihydropyrimidin-2(1H)-one], on human NK3 receptor [3], the inhibition at 1 µM is more than 50%. In addition, the inhibition at 10 µM on human NK3 receptor [1] (setting [4]) is more than 50%.
As to `CCOc1cc(C2NC(=O)NC(c3cc(F)cc(F)c3)=C2c2ccccc2)cc([N+](=O)[O-])c1O` (stereo not shown) [6-(3,5-difluorophenyl)-4-(3-ethoxy-4-hydroxy-5-nitrophenyl)-5-phenyl-3,4-dihydropyrimidin-2(1H)-one], the inhibition at 1 µM on human NK3 receptor [3] was more than 50%.
`CCOc1cc(C2NC(=O)NC(c3ccc(F)c(Cl)c3)=C2c2ccccc2)cc([N+](=O)[O-])c1O` (stereo not shown) [6-(3-chloro-4-fluorophenyl)-4-(3-ethoxy-4-hydroxy-5-nitrophenyl)-5-phenyl-3,4-dihydropyrimidin-2(1H)-one]: the inhibition at 1 µM on human NK3 receptor [3] is more than 50%.
For `CCOc1cc(C2NC(=O)NC(c3cccc(Cl)c3)=C2c2ccccc2)cc([N+](=O)[O-])c1O` (stereo not shown) [6-(3-chlorophenyl)-4-(3-ethoxy-4-hydroxy-5-nitrophenyl)-5-phenyl-3,4-dihydropyrimidin-2(1H)-one], the inhibition at 1 µM at human NK3 receptor [3] was more than 50%.
`CCOc1cc(C2NC(=O)NC(c3ccc(Cl)c(F)c3)=C2c2ccccc2)cc([N+](=O)[O-])c1O` (stereo not shown) [6-(4-chloro-3-fluorophenyl)-4-(3-ethoxy-4-hydroxy-5-nitrophenyl)-5-phenyl-3,4-dihydropyrimidin-2(1H)-one]: the inhibition at 1 µM on human NK3 receptor [3] is more than 50%. Moreover, the inhibition at 10 µM at human NK3 receptor [1] (setting [4]) was more than 50%.
On to `CCOc1cc(C2NC(=O)NC(c3ccc(Cl)cc3)=C2c2ccccc2)cc([N+](=O)[O-])c1O` (stereo not shown) [6-(4-chlorophenyl)-4-(3-ethoxy-4-hydroxy-5-nitrophenyl)-5-phenyl-3,4-dihydropyrimidin-2(1H)-one], for which the inhibition at 1 µM at human NK3 receptor [3] was more than 50%.
Same read-out and setting: then `CCOc1cc(C2NC(=O)NC(C3CCCC3)=C2c2ccccc2)cc([N+](=O)[O-])c1O` (stereo not shown) [6-cyclopentyl-4-(3-ethoxy-4-hydroxy-5-nitrophenyl)-5-phenyl-3,4-dihydropyrimidin-2(1H)-one], with more than 50%; and `CCOc1cc(C2NC(=O)NC(c3ccccc3)=C2c2ccccc2)cc2[nH]c(=O)oc12` (stereo not shown) [7-ethoxy-5-(2-oxo-5,6-diphenyl-1,2,3,4-tetrahydropyrimidin-4-yl)benzo[d]oxazol-2(3H)-one], with more than 50%.
Turning to `CCOc1cc([C@H]2NC(=O)NC(c3ccccc3)=C2c2ccccc2)cc([N+](=O)[O-])c1O` [(R)-4-(3-ethoxy-4-hydroxy-5-nitrophenyl)-5,6-diphenyl-3,4-dihydropyrimidin-2(1H)-one], the pIC50 against human NK3 receptor [2] is 6.96.
On the same count and under the same terms, in the case of `CCOc1cc([C@H]2NC(=O)NC(c3cccnc3)=C2c2ccccc2)cc([N+](=O)[O-])c1O` [(R)-4-(3-ethoxy-4-hydroxy-5-nitrophenyl)-5-phenyl-6-(pyridin-3-yl)-3,4-dihydropyrimidin-2(1H)-one] it was 6.15; in that of `CCOc1cc([C@H]2NC(=O)NC(c3ccccc3)=C2c2ccsc2)cc([N+](=O)[O-])c1O` [(R)-4-(3-ethoxy-4-hydroxy-5-nitrophenyl)-6-phenyl-5-(thiophen-3-yl)-3,4-dihydropyrimidin-2(1H)-one], 5.85.

For orientation: inhibition means the percentage by which the read-out fell short of the control. As usually defined, the pIC50 is the IC50 on a negative log10 scale, so that one unit is a factor of ten. Read a low pIC50 as a large IC50.

(Values after patent publication US8906933B2, “Dihydropyrimidin-2(1H)-one compounds as neurokinin-3 receptor antagonists” (N30 Pharmaceuticals, Inc., priority 2010, dated 2014).)
